Source: patent US9695155B2, “Herbicidal substituted pyrimidinyloxy benzene compounds” (E. I. DU PONT DE NEMOURS AND COMPANY, priority 2013, dated 2017)

Legend:
morningglory [1] = assay: Test A postemergence; assay type: in vivo, Ipomoea spp.; conditions: Ipomoea, post-emergence, 240 h, 0 to 100 scale where 0 is no effect and 100 is complete control, read-out: Plant response rating, Morningglory
Outline: (§1)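 Scoring: eye-based comparison with untreated controls, 0 for no effect through 100 for complete control, at about day 10. Treatments: directed soil spray preemergence; foliar spray postemergence on 2–10 cm plants at the one- to two-leaf stage. Medium: loam soil with sand.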

pigweed [2] = assay: Test A preemergence; assay type: in vivo, Amaranthus retroflexus; conditions: Amaranthus retroflexus, pre-emergence
Outline: as §1

morningglory [3] = assay: Test A preemergence; assay type: in vivo, Ipomoea spp.
Outline: as §1

pigweed [4] = assay: Test C postemergence; assay type: in vivo, Amaranthus retroflexus; conditions: Amaranthus retroflexus, post-emergence
Outline: (§2)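 Whole-plant greenhouse test with surfactant-containing solvent formulation, applied preemergence to sown loam–sand pots or postemergence to 2–18 cm plants. Scored by eye 13 to 15 days on, 0–100 scale.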

barnyardgrass [5] = assay: Test C postemergence; assay type: in vivo, Echinochloa crus-galli; conditions: Echinochloa crus-galli, post-emergence
Outline: as §2

ragweed = assay: Test C postemergence; assay type: in vivo, Ambrosia elatior; conditions: Ambrosia artemisiifolia, post-emergence
Outline: as §2

blackgrass = assay: Test C postemergence; assay type: in vivo, Alopecurus myosuroides; conditions: Alopecurus myosuroides, post-emergence
Outline: as §2

kochia = assay: Test C postemergence; assay type: in vivo, Kochia scoparia; conditions: Bassia scoparia, post-emergence
Outline: as §2

morningglory [6] = assay: Test C postemergence; assay type: in vivo, Ipomoea coccinea; conditions: Ipomoea, post-emergence
Outline: as §2

velvetleaf [7] = assay: Test C postemergence; assay type: in vivo, Abutilon theophrasti; conditions: Abutilon theophrasti, post-emergence
Outline: as §2

wheat = assay: Test A postemergence; assay type: in vivo, Triticum aestivum; conditions: Triticum aestivum, post-emergence, 240 h, 0 to 100 scale where 0 is no effect and 100 is complete control, read-out: Plant response rating, Wheat
Outline: as §1

wild oat = assay: Test C postemergence; assay type: in vivo, Avena fatua; conditions: Avena fatua, post-emergence
Outline: as §2

velvetleaf [8] = assay: Test A preemergence; assay type: in vivo, Abutilon theophrasti
Outline: as §1

barnyardgrass [9] = assay: Test A preemergence; assay type: in vivo, Echinochloa crus-galli; conditions: Echinochloa crus-galli, pre-emergence, 240 h
Outline: as §1

Heteranthera limosa = assay: Test B flooded paddy test; assay type: in vivo; conditions: Heteranthera limosa, Flood, 250 g ai/ha; 0 to 100 scale where 0 is no effect and 100 is complete control; read-out: Plant response rating, Ducksalad
Outline: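 Flooded to 3 cm at the 2-leaf stage, pots received compound through the paddy water and were kept at that depth under greenhouse conditions. After 13–15 days, effect was rated by eye relative to controls, 0 = none and 100 = complete control.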

[10] = 125 g ai/ha, 0 to 100 scale where 0 is no effect and 100 is complete control

FC(F)c1cnn(-c2ccccc2Oc2ncc(Cl)cn2)c1 [Compound 80, 5-chloro-2-[2-[4-(difluoromethyl)-1H-pyrazol-1-yl]phenoxy]pyrimidine]
pest or weed control at 125 g/ha (morningglory [1]; 125 g ai/ha): 90% | pest or weed control at 500 g/ha (morningglory [1]; 500 g ai/ha): 100% | pest or weed control at 125 g/ha (pigweed [2]; 125 g ai/ha, 0 to 100 scale where 0 is no effect and 100 is complete control, read-out: Plant response rating, Pigweed): 0% | pest or weed control at 500 g/ha (pigweed [2]; 240 h, 500 g ai/ha, 0 to 100 scale, 0 no effect, 100 complete control, approx. 10 days, read-out: Pigweed plant response rating): 0% | Plant response rating, Morningglory (morningglory [3]; [10]): 30 | pest or weed control at 500 g/ha (morningglory [3]; Ipomoea, pre-emergence, 240 h, 500 g ai/ha, 0 to 100 scale, 0 no effect, 100 complete control, approx. 10 days, read-out: Morningglory plant response rating): 80% | pest or weed control at 125 g/ha (pigweed [4]; 125 g ai/ha, postemergence, read-out: Plant response rating (0 to 100), Pigweed): 75% | pest or weed control at 31 g/ha (pigweed [4]; Postemergence, 31 g ai/ha, scale 0 to 100 (0 no effect, 100 complete control), 13 to 15 days, read-out: Plant response rating, Pigweed): 60% | pest or weed control at 62 g/ha (pigweed [4]; Postemergence, 62 g ai/ha, scale 0 to 100 (0 no effect, 100 complete control), read-out: Plant response rating, Pigweed): 65% | pest or weed control at 16 g/ha (barnyardgrass [5]; 16 g ai/ha, postemergence, visual rating, scale 0 to 100 (0 no effect, 100 complete control), 13 to 15 days, read-out: Barnyardgrass plant response rating): 0% | pest or weed control at 125 g/ha (barnyardgrass [5]; 125 g ai/ha, postemergence, read-out: Plant response rating (0 to 100), Barnyardgrass): 5% | pest or weed control at 31 g/ha (barnyardgrass [5]; Postemergence, 31 g ai/ha, scale 0 to 100 (0 no effect, 100 complete control), 13 to 15 days, read-out: Plant response rating, Barnyardgrass): 5% | pest or weed control at 62 g/ha (barnyardgrass [5]; Postemergence, 62 g ai/ha, scale 0 to 100 (0 no effect, 100 complete control), read-out: Plant response rating, Barnyardgrass): 5% | pest or weed control at 125 g/ha (ragweed; 125 g ai/ha, postemergence, read-out: Plant response rating (0 to 100), Ragweed): 45% | pest or weed control at 31 g/ha (ragweed; Postemergence, 31 g ai/ha, scale 0 to 100 (0 no effect, 100 complete control), 13 to 15 days, read-out: Plant response rating, Ragweed): 40% | pest or weed control at 62 g/ha (ragweed; Postemergence, 62 g ai/ha, scale 0 to 100 (0 no effect, 100 complete control), read-out: Plant response rating, Ragweed): 40% | pest or weed control at 16 g/ha (blackgrass; 16 g ai/ha, postemergence, visual rating, scale 0 to 100 (0 no effect, 100 complete control), 13 to 15 days, read-out: Blackgrass plant response rating): 0% | pest or weed control at 125 g/ha (blackgrass; 125 g ai/ha, postemergence, read-out: Plant response rating (0 to 100), Blackgrass): 40% | pest or weed control at 31 g/ha (blackgrass; Postemergence, 31 g ai/ha, scale 0 to 100 (0 no effect, 100 complete control), 13 to 15 days, read-out: Plant response rating, Blackgrass): 5% | pest or weed control at 62 g/ha (blackgrass; Postemergence, 62 g ai/ha, scale 0 to 100 (0 no effect, 100 complete control), read-out: Plant response rating, Blackgrass): 10% | pest or weed control at 16 g/ha (kochia; 16 g ai/ha, postemergence, visual rating, scale 0 to 100 (0 no effect, 100 complete control), 13 to 15 days, read-out: Kochia plant response rating): 60% | pest or weed control at 125 g/ha (kochia; 125 g ai/ha, postemergence, read-out: Plant response rating (0 to 100), Kochia): 95% | pest or weed control at 31 g/ha (kochia; Postemergence, 31 g ai/ha, scale 0 to 100 (0 no effect, 100 complete control), 13 to 15 days, read-out: Plant response rating, Kochia): 90% | pest or weed control at 62 g/ha (kochia; Postemergence, 62 g ai/ha, scale 0 to 100 (0 no effect, 100 complete control), read-out: Plant response rating, Kochia): 95% | pest or weed control at 125 g/ha (morningglory [6]; 125 g ai/ha, postemergence, read-out: Plant response rating (0 to 100), Morningglory): 60% | pest or weed control at 31 g/ha (morningglory [6]; Postemergence, 31 g ai/ha, scale 0 to 100 (0 no effect, 100 complete control), 13 to 15 days, read-out: Plant response rating, Morningglory): 10% | pest or weed control at 62 g/ha (morningglory [6]; Postemergence, 62 g ai/ha, scale 0 to 100 (0 no effect, 100 complete control), read-out: Plant response rating, Morningglory): 60% | pest or weed control at 125 g/ha (velvetleaf [7]; 125 g ai/ha, postemergence, read-out: Plant response rating (0 to 100), Velvetleaf): 75% | pest or weed control at 31 g/ha (velvetleaf [7]; Postemergence, 31 g ai/ha, scale 0 to 100 (0 no effect, 100 complete control), 13 to 15 days, read-out: Plant response rating, Velvetleaf): 45% | pest or weed control at 62 g/ha (velvetleaf [7]; Postemergence, 62 g ai/ha, scale 0 to 100 (0 no effect, 100 complete control), read-out: Plant response rating, Velvetleaf): 65% | plant injury at 125 g/ha (wheat; 125 g ai/ha): 40% | plant injury at 500 g/ha (wheat; 500 g ai/ha): 80% | pest or weed control at 125 g/ha (wild oat; 125 g ai/ha, postemergence, read-out: Plant response rating (0 to 100), Oat, Wild): 10% | pest or weed control at 31 g/ha (wild oat; Postemergence, 31 g ai/ha, scale 0 to 100 (0 no effect, 100 complete control), 13 to 15 days, read-out: Plant response rating, Oat, Wild): 0% | pest or weed control at 62 g/ha (wild oat; Postemergence, 62 g ai/ha, scale 0 to 100 (0 no effect, 100 complete control), read-out: Plant response rating, Oat, Wild): 5% | Plant response rating, Velvetleaf (velvetleaf [8]; [10]): 80 | pest or weed control at 500 g/ha (velvetleaf [8]; Abutilon theophrasti, pre-emergence, 240 h, 500 g ai/ha, 0 to 100 scale, 0 no effect, 100 complete control, approx. 10 days, read-out: Velvetleaf plant response rating): 90% | pest or weed control at 125 g/ha (barnyardgrass [9]; 125 g ai/ha, 0 to 100 scale where 0 is no effect and 100 is complete control, read-out: Plant response rating, Barnyardgrass): 60% | pest or weed control at 500 g/ha (barnyardgrass [9]; 500 g ai/ha, 0 to 100 scale, 0 no effect, 100 complete control, approx. 10 days, read-out: Barnyardgrass plant response rating): 100% | pest or weed control at 250 g/ha (Heteranthera limosa): 100%
